Experimental data: US20210299109A1, “AGENTS FOR TREATING CANCER AND METHODS FOR IDENTIFYING SAID AGENTS” (MINERVA BIOTECHNOLOGIES CORPORATION, priority 2017, published 2021)

How the values were obtained:
naïve stem cells = experiment: RT-PCR of differentiation markers and super-enhancer target genes in naïve stem cells; assay type: cell-based, human
Source text: The genes whose expression increased as a result of treatment with the compounds of the invention, in a concentration dependent manner, are fibronectin and vimentin, which both increase as stem cells initiate differentiation and NF1, which is one of the first genes to increase when stem cells begin to differentiate down the neural lineage. […] Thus, compounds of the invention that induce markers of differentiation are useful for the treatment of cancers, because cancer cells, by definition, have de-differentiated, which allows them to continually self-replicate. […] Expression of metastatic marker E-cadherin was reduced and expression of differentiation markers fibronectin, vimentin and NF1 were increased. Novel compounds of the invention are highly specific. […] Although we discovered that NME1 dimers, NME7AB and NME7-X1 are all activating ligands of the MUC1* growth factor receptor and they bind to its extracellular domain, we have developed ample evidence that both NME7AB and NME7-X1 have other binding partners and can exert oncogenic effects, independent of MUC1*.
We first used RT-PCR to measure expression of these super-enhancer target genes and other genes of interest in naïve stem cells in the presence or absence of a few compounds of the invention. […] We also measured expression of microRNA-145, in response to treatment with compounds of the invention. […]

[1] = test system: human naïve state stem cells; experiment: stem cell drug screen on naïve state stem cells; assay type: cell-based; settings: for effect on naïve stem cells: pluripotency, growth, differentiation (first panel, FIG. 2, 7-10): 6 uM, 3 days, with or without NME7AB
Method: (§1) The stem cell screening assay, was performed in both the presence and absence of the stem cell growth factors: NME7AB for growing naïve stem cells or FGF for growing primed stem cells. If the cognate growth factor was present, then the biological or small molecule would have to compete away the growth factor to get an effect. Therefore, we expected to see more of an effect when the growth factor, FGF for primed stem cells or NME7AB or NME1 dimers for naïve stem cells, was absent. The effect of the compounds on stem cells was visually determined and compounds were ranked 0-4, with 4 being the greatest effect and 0 being no observable effect. The major effect that was observed was a change from pluripotent stem cell morphology, which is a cobblestone pattern of small round cells with a large nucleus to cytoplasm ratio, to that of differentiating stem cells, which are elongated, large and flattened cells with a smaller nucleus to cytoplasm ratio. […] […] In this particular case, the naïve state stem cells were maintained in a naïve state by culturing in a media containing NME7AB or NME1 dimers. However, other methods such as 2i and 5i (Silva et al., 2008, Nichols and Smith, 2009, Theunissen et al., 2014)] can be used to maintain stem cells in a more naïve state. In this case primed state stem cells were cultured in bFGF over a layer of MEFs, although it is known that any bFGF containing media will maintain stem cells in the primed state.
Percent inhibition of cancer cell migration was performed in a wound healing assay. The percent area that the invading cancer cells occupied, in the presence of a drug candidate compared to the controls, was quantified by Image J cell software which enables cell counting from photographs. IC50's were calculated by performing migration experiments at several compound concentrations and then applying Hill's equation. Inhibition of cancer cell proliferation was quantified by automated cell counting in the presence or absence of a drug candidate. Here, the inhibition of cancer cell proliferation was scored 1 if proliferation was inhibited by 25%, 2 if inhibited by 50%, 3 for 75% and 4 for the highest degree of inhibition of proliferation, and 0 for the lowest. The effect of the drug candidates on stem cell pluripotency or proliferation was scored by eye, based on cell morphology and cell density, with 0 being no change in morphology or cell number and 4 being the most profound effect, with the stem cells taking on the morphology of a differentiating cell, along with much fewer cells indicative of inhibition of proliferation. As an example, FIGS. 30A-30F show photographs of naïve stem cell, primed stem cell and fibroblast controls. FIGS. 31A-31F show the effect of compounds of the invention on naïve state stem cells, where the number of ‘+’ signs indicates the score from 0-4 of ability of compound to inhibit pluripotency, proliferation of naïve stem cells or ability to induce their differentiation. […] FIGS. 36-44 and 65-87 show photographs and IC50 graphs of the compounds of the invention, inhibiting cancer cell migration and invasion. Cancer cell migration is a hallmark of metastatic cancer.
Stem cells whether embryonic or induced pluripotent stem (iPS) cells were cultured in a minimal, serum-free media that contained human recombinant NME7AB at a concentration of 2-32 nM wherein 4-8 nM is preferred and 4 nM is more preferred. […]

[2] = test system: human primed state stem cells; experiment: stem cell drug screen on primed state stem cells; assay type: cell-based
Method: as §1
Percent inhibition of cancer cell migration was performed in a wound healing assay. The percent area that the invading cancer cells occupied, in the presence of a drug candidate compared to the controls, was quantified by Image J cell software which enables cell counting from photographs. IC50's were calculated by performing migration experiments at several compound concentrations and then applying Hill's equation. Inhibition of cancer cell proliferation was quantified by automated cell counting in the presence or absence of a drug candidate. Here, the inhibition of cancer cell proliferation was scored 1 if proliferation was inhibited by 25%, 2 if inhibited by 50%, 3 for 75% and 4 for the highest degree of inhibition of proliferation, and 0 for the lowest. The effect of the drug candidates on stem cell pluripotency or proliferation was scored by eye, based on cell morphology and cell density, with 0 being no change in morphology or cell number and 4 being the most profound effect, with the stem cells taking on the morphology of a differentiating cell, along with much fewer cells indicative of inhibition of proliferation. As an example, FIGS. 30A-30F show photographs of naïve stem cell, primed stem cell and fibroblast controls. […]

cancer cells = settings: cited from earlier work
[3] = test system: MUC1* positive cancer cells; settings: in vitro; cited from earlier work
human fibroblasts = experiment: effect on fibroblast proliferation (surrogate for normal cells); assay type: cell-based; settings: 500 nM final concentration
Source text: However, fibroblasts are more differentiated than stem cells but are able to self-replicate for defined periods of time. We tested selected compounds of the invention to determine if these compounds were just cytotoxic or if they selectively affected stem cells and, importantly, cancer cells, but not normal, healthy cells. Here, we used fibroblasts as a surrogate for normal cells. […] […] Each compound was scored for its effect on fibroblast proliferation where “+” indicates 25% inhibition of fibroblast growth, “++” 50% inhibition and “+++” 75% inhibition of growth.

In the case of Cc1[nH]c(/C=C2\C(=O)Nc3ccc(S(=O)(=O)N(C)c4cccc(Cl)c4)cc32)c(C)c1C(=O)N1CCN(C)CC1 [SU11274], the “up-regulation of markers of differentiation (fibronectin, vimentin, NF1) in naïve stem cells” value (naïve stem cells) is reported as “did not cause up-regulation of markers of differentiation”.

In the case of CCCCNC(=O)N1CCc2c([nH]c3ccccc23)C1C(C)c1ccccc1 (centres unmarked) [MN1130], the “effect on naïve stem cells: pluripotency, growth, differentiation (first panel, FIG. 2, 7-10)” value [1] is reported as “induced differentiation” and the “effect on primed stem cells (first panel, FIG. 2-6)” value ([2]; 6 uM, 3 days, with or without FGF) is reported as “modest effect”.

In the case of “FLR peptide: synthetic peptide corresponding to the extracellular domain of MUC1*, FLR also known as PSMGFR (SEQ ID NO:3) (GTINVHDVETQFNQYKTEAASRYNLTISDVSVSDVPFPFSAQSGA; the extracellular domain of Native Primary Sequence of the MUC1 Growth Factor Receptor (nat-PSMGFR - an example of “PSMGFR”))”, the “inhibition of the transition of regular cancer cells to metastatic cancer cells” value (cancer cells) is given as “inhibit the transition of regular cancer cells to metastatic cancer cells” and the “effect on naïve stem cells: pluripotency, growth, differentiation (first panel, FIG. 2, 7-10)” value [1] is given as “induced differentiation”.

For COC(=O)c1ccc(C2c3[nH]c4ccccc4c3CCN2C(=O)c2cccc(Cl)c2)cc1 (centres unmarked) [MN0642], the “effect on naïve stem cells: pluripotency, growth, differentiation (first panel, FIG. 2, 7-10)” value [1] is given as “induced differentiation” and the “inhibition of growth of cancer cells” value [3] is given as “inhibit the growth of cancer cells in vitro”.

In the case of Cc1sc2c(c1C)C(c1ccc(Cl)cc1)=N[C@@H](CC(=O)OC(C)(C)C)c1nnc(C)n1-2 [JQ1(+)], the “up-regulation of markers of differentiation (fibronectin, vimentin, NF1) in naïve stem cells” value (naïve stem cells) is reported as “did not cause up-regulation of markers of differentiation”, the “effect on naïve stem cell growth” value [1] is reported as “inhibitory effect” and the “induction of differentiation and growth inhibition of naïve state stem cells” value ([1]; 500 nM or 1 uM, cells cultured in NME7AB or NME1 dimers) is reported as “dramatically induced differentiation”. The “effect on primed stem cell growth” value [2] was “not primed stem cell growth”, the “effect on the size of primed stem cell colonies” value ([2]; treated for 3 days, 500 nM or 1 uM) was “modest effect” and the “induction of differentiation of primed state stem cells” value ([2]; treated for 3 days, JQ1 at 500 nM or 1 uM, bFGF absent) was “None of these agents appeared to induce differentiation”. The effect on fibroblasts (human fibroblasts) was “same effect on fibroblasts as it does on primed state stem cells”.
